Measurements: PubChem BioAssay AID248 (DTP/NCI, 2004)
Values joined by “and” are separate entries in the source; they are usually repeats but may differ in a detail not shown here. Identical values can stand only once. Toxic doses and inconclusive results are not listed. Cut-off read from the data, not from the text of the source: active = T/C of 150% or more; inactive = T/C below 125%.

Test system: L1210 leukemia ip in BDF1 mice, survival T/C
Experiment: NCI In Vivo Anticancer Drug Screen. Data for tumor model L1210 Leukemia (intraperitoneal) in B6D2F1 (BDF1) mice
Settings: endpoint: mean survival time, higher = longer survival
Method in brief: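 Transplanted-tumor mice were given test agent; controls received vehicle only. Survival readings from the two groups were divided (treated over control).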

[1] = dose: 100.0 mg/kg/injection, schedule: Q04DX003 (ip), vehicle: water
[2] = dose: 200.0 mg/kg/injection, schedule: Q04DX003 (ip), vehicle: water
[3] = dose: 400.0 mg/kg/injection, schedule: Q04DX003 (ip), vehicle: water
[4] = dose: 100.0 mg/kg/injection, schedule: Q01DX009 (ip), vehicle: Klucel (hydroxypropylcellulose) (HPC)
[5] = dose: 100.0 mg/kg/injection, schedule: Q01DX009 (ip), vehicle: saline with Tween-80
[6] = dose: 200.0 mg/kg/injection, schedule: Q01DX009 (ip), vehicle: saline with Tween-80
[7] = dose: 200.0 mg/kg/injection, schedule: Q01DX009 (ip), vehicle: Klucel (hydroxypropylcellulose) (HPC)
[8] = dose: 400.0 mg/kg/injection, schedule: Q01DX009 (ip), vehicle: Klucel (hydroxypropylcellulose) (HPC)
[9] = dose: 100.0 mg/kg/injection, schedule: Q04DX003 (ip), vehicle: saline with Tween-80
[10] = dose: 200.0 mg/kg/injection, schedule: Q04DX003 (ip), vehicle: saline with Tween-80
[11] = dose: 400.0 mg/kg/injection, schedule: Q01DX009 (ip), vehicle: saline with Tween-80
[12] = dose: 400.0 mg/kg/injection, schedule: Q04DX003 (ip), vehicle: saline with Tween-80
[13] = dose: 100.0 mg/kg/injection, schedule: Q04DX003 (ip), vehicle: Klucel (hydroxypropylcellulose) (HPC)
[14] = dose: 200.0 mg/kg/injection, schedule: Q04DX003 (ip), vehicle: Klucel (hydroxypropylcellulose) (HPC)
[15] = dose: 400.0 mg/kg/injection, schedule: Q04DX003 (ip), vehicle: Klucel (hydroxypropylcellulose) (HPC)
[16] = dose: 100.0 mg/kg/injection, schedule: Q01DX009 (ip), vehicle: saline
[17] = dose: 100.0 mg/kg/injection, schedule: Q04DX003 (ip), vehicle: saline

Measured: T/C

CNCCCC(CO)NS(=O)(=O)c1ccc(C)cc1 (centres undefined)
inactive: dose: 100.0 mg/kg/injection, schedule: Q01DX001 (ip), vehicle: water 94 % of control | [1] 92 % of control | dose: 200.0 mg/kg/injection, schedule: Q01DX001 (ip), vehicle: water 97 % of control | [2] 100 % of control | dose: 400.0 mg/kg/injection, schedule: Q01DX001 (ip), vehicle: water 97 % of control | [3] 87 % of control

[O-][n+]1onc2ccc(Cl)cc21
inactive: dose: 25.0 mg/kg/injection, schedule: Q01DX009 (ip), vehicle: Klucel (hydroxypropylcellulose) (HPC) 101 % of control | dose: 50.0 mg/kg/injection, schedule: Q01DX009 (ip), vehicle: Klucel (hydroxypropylcellulose) (HPC) 98 % of control | [4] 95 % of control

COc1ccc(OC)c(N=CC(=O)c2ccc(C)cc2)c1
inactive: dose: 75.0 mg/kg/injection, schedule: Q04DX003 (ip), vehicle: Klucel (hydroxypropylcellulose) (HPC) 95 % of control | dose: 150.0 mg/kg/injection, schedule: Q04DX003 (ip), vehicle: Klucel (hydroxypropylcellulose) (HPC) 94 % of control | dose: 300.0 mg/kg/injection, schedule: Q04DX003 (ip), vehicle: Klucel (hydroxypropylcellulose) (HPC) 97 % of control

CCCCC#C/C=C/CCCC
inactive: dose: 50.0 mg/kg/injection, schedule: Q01DX009 (ip), vehicle: saline with Tween-80 95 % of control | [5] 100 % of control | [6] 100 % of control

ClCC1COC(c2ccccc2)O1 (centres undefined)
inactive: dose: 5.8 mg/kg/injection, schedule: Q01DX Z (ip), vehicle: methylcellulose (MC) 112 % of control | dose: 8.8 mg/kg/injection, schedule: Q01DX Z (ip), vehicle: methylcellulose (MC) 102 % of control | dose: 13.3 mg/kg/injection, schedule: Q01DX Z (ip), vehicle: methylcellulose (MC) 115 % of control | dose: 20.0 mg/kg/injection, schedule: Q01DX Z (ip), vehicle: methylcellulose (MC) 97 % of control

O=C(O)[C@H](O)[C@@H](O)C(=O)O.[Ga]
inactive: dose: 100.0 mg/kg/injection, schedule: Q01DX001 (ip), vehicle: saline 106 % of control | dose: 200.0 mg/kg/injection, schedule: Q01DX001 (ip), vehicle: saline 100 % of control | dose: 400.0 mg/kg/injection, schedule: Q01DX001 (ip), vehicle: saline 104 % of control

Brc1ccccc1Nn1c2ccccc2c2ccccc21
inactive: [4] 103 % of control | [7] 95 % of control | [8] 103 % of control

C=CCCCCCCCCC(=O)Cl
inactive: [5] 89 % of control | [9] 97 % of control | [6] 88 % of control | [10] 101 % of control | [11] 98 % of control | [12] 95 % of control

CCOc1cccc(Cc2c[nH]c(=O)n(C)c2=O)c1
inactive: [13] 93 % of control | [14] 97 % of control | [15] 98 % of control

COc1cc2c(cc1OC)C(=O)N(C)CC2
inactive: dose: 100.0 mg/kg/injection, schedule: Q01DX009 (ip), vehicle: water 95 % of control | [1] 97 % of control | dose: 200.0 mg/kg/injection, schedule: Q01DX009 (ip), vehicle: water 102 % of control | [2] 97 % of control | [3] 100 % of control

CSc1nnc(SC)s1
inactive: [9] 104 % of control | [10] 93 % of control | [12] 93 % of control

Clc1ccc(/C=N/Nc2nc3ccccc3s2)cc1Cl
inactive: dose: 40.0 mg/kg/injection, schedule: Q01DX Z (ip), vehicle: methylcellulose (MC) 88 % of control | dose: 60.0 mg/kg/injection, schedule: Q01DX Z (ip), vehicle: methylcellulose (MC) 103 % of control | dose: 90.0 mg/kg/injection, schedule: Q01DX Z (ip), vehicle: methylcellulose (MC) 94 % of control

CCCCCNC(=O)CCC
inactive: [4] 108 % of control | [13] 96 % of control | [7] 108 % of control | [14] 107 % of control | [8] 106 % of control | [15] 95 % of control

CCOC(=O)c1ccc(NC(=O)Nc2ccc(Cl)cc2[N+](=O)[O-])cc1
inactive: [4] 95 % of control and 92 % of control | [7] 92 % of control | [8] 88 % of control and 92 % of control

CSC(=O)Oc1ccc([N+](=O)[O-])cc1
inactive: [5] 106 % of control | [9] 104 % of control | [6] 96 % of control | [10] 100 % of control | [11] 101 % of control | [12] 91 % of control

NC(=O)N1CCCCN1C(N)=O
inactive: dose: 100.0 mg/kg/injection, schedule: Q04DX002 (ip), vehicle: saline 99 % of control | dose: 200.0 mg/kg/injection, schedule: Q04DX002 (ip), vehicle: saline 111 % of control | dose: 400.0 mg/kg/injection, schedule: Q04DX002 (ip), vehicle: saline 92 % of control

CC1N2CC12c1ccccc1 (centres undefined)
inactive: dose: 10.0 mg/kg/injection, schedule: Q01DX001 (ip), vehicle: saline 103 % of control | dose: 20.0 mg/kg/injection, schedule: Q01DX001 (ip), vehicle: saline 108 % of control | dose: 40.0 mg/kg/injection, schedule: Q01DX001 (ip), vehicle: saline 103 % of control

CCN(CC)CCOc1cc(C)ccc1C
inactive: dose: 25.0 mg/kg/injection, schedule: Q01DX009 (ip), vehicle: saline 98 % of control | dose: 50.0 mg/kg/injection, schedule: Q01DX009 (ip), vehicle: saline 93 % of control | dose: 50.0 mg/kg/injection, schedule: Q04DX003 (ip), vehicle: saline 100 % of control | [16] 95 % of control | [17] 98 % of control

COC1OC(COS(C)(=O)=O)C(O)C(OS(C)(=O)=O)C1OS(C)(=O)=O (centres undefined)
inactive: dose: 50.0 mg/kg/injection, schedule: Q04DX002 (ip), vehicle: Klucel (hydroxypropylcellulose) (HPC) 93 % of control | dose: 100.0 mg/kg/injection, schedule: Q04DX002 (ip), vehicle: Klucel (hydroxypropylcellulose) (HPC) 93 % of control | dose: 200.0 mg/kg/injection, schedule: Q04DX002 (ip), vehicle: Klucel (hydroxypropylcellulose) (HPC) 101 % of control

CCCCCCCCCCCCCCCCS(=O)(=O)N/N=C/c1cc(Cl)ccc1O
inactive: dose: 100.0 mg/kg/injection, schedule: Q01DX001 (ip), vehicle: carboxymethylcellulose (CMC) 94 % of control | dose: 200.0 mg/kg/injection, schedule: Q01DX001 (ip), vehicle: carboxymethylcellulose (CMC) 92 % of control | dose: 400.0 mg/kg/injection, schedule: Q01DX001 (ip), vehicle: carboxymethylcellulose (CMC) 92 % of control

C/C(=C/Cl)OC(C)C
inactive: dose: 50.0 mg/kg/injection, schedule: Q01DX009 (ip), vehicle: acetone 99 % of control | dose: 100.0 mg/kg/injection, schedule: Q01DX009 (ip), vehicle: acetone 99 % of control | dose: 200.0 mg/kg/injection, schedule: Q01DX009 (ip), vehicle: acetone 101 % of control

O=S(=O)(OCC1CO1)c1ccc(Cl)cc1 (centres undefined)
inactive: dose: 100.0 mg/kg/injection, schedule: Q01DX008 (ip), vehicle: Klucel (hydroxypropylcellulose) (HPC) 101 % of control | dose: 200.0 mg/kg/injection, schedule: Q01DX008 (ip), vehicle: Klucel (hydroxypropylcellulose) (HPC) 108 % of control | dose: 400.0 mg/kg/injection, schedule: Q01DX008 (ip), vehicle: Klucel (hydroxypropylcellulose) (HPC) 108 % of control

NNC(=O)CCCCCC(=O)NN
inactive: [16] 93 % of control | [17] 94 % of control | dose: 200.0 mg/kg/injection, schedule: Q01DX009 (ip), vehicle: saline 95 % of control | dose: 200.0 mg/kg/injection, schedule: Q04DX003 (ip), vehicle: saline 96 % of control | dose: 400.0 mg/kg/injection, schedule: Q01DX009 (ip), vehicle: saline 106 % of control | dose: 400.0 mg/kg/injection, schedule: Q04DX003 (ip), vehicle: saline 102 % of control
